According to patent publication US20230050846A1, “TREATMENT OF HEPATIC AND CARDIOVASCULAR DISORDERS” (LIFESEARCH, priority 2019, published 2023):
Peptide text beside a SMILES is read from it. * marks the point of attachment. Palmitoyl = CCCCCCCCCCCCCCCC(=O)*

Columns and labels:
[1] = test system: HUVEC cells; experiment: Endothelial nitric oxide (NO) production, DAF-FM-DA probe; type: cell-based, human; conditions: 1 μM, 10 min; abolished by IF1
Method: Nitric oxide (NO) was detected using a DAF-FM-DA probe (D2321, Sigma-Aldrich) which forms fluorescent benzotriazole when it reacts with NO. HUVEC cells (PromoCell #C-12203) were seeded in 96-well plates (10,000 cells per well) and cultured in endothelial cell basal medium 2 (PromoCell #C-22211) supplemented with GM2 supplement Mix (PromoCell #C-39211), until 80-90% confluence. The medium was then replaced with M-199 without serum for 4 h, and the cells were incubated for 45 min with DAF-FM-DA (5 μM) diluted in PBS. Cells were treated with increasing concentrations of the different peptides or apoA-I (10 μM) purified from human plasma or histamine (1 mM) as positive control. In another set of experiments, cells were incubated with inhibitors (IF1, 1 μM) for 10 min before treatment with peptides or apoA-I. The fluorescence was recorded for 30 min (λex=495 nm, λem=515 nm) with a Tecan Flash Multimode Reader (Thermo Fisher Scientific). Fluorescence for each condition was compared with the value obtained in untreated cells, and results were expressed as the fold change as compared with the basal condition (untreated cells).

[2] = test system: wild-type C57B/L6J mice; experiment: Biliary lipid secretions, gallbladder cannulation, wild-type mice; type: in vivo, mouse; conditions: for bile flux / biliary secretion of bile acids / biliary secretion of cholesterol: C57BL/6 mice, vs PBS or SCR
Method: Wild-type C57B/L6J male mice were purchased from Janvier Labs (Le Genest Saint Isle, France). LDLR knock-out mice (males, C57B/L6J background) were obtained from The Jackson Laboratory (Bar Harbor, Me., USA). Mice were caged in animal rooms under specific pathogen free conditions at the animal facility of Rangueil (Anexplo platform, US006, Toulouse, France) with a light/dark schedule of 12 h/12 h and were fed ad libitum with a normal chow diet (#V1535 R/M-H, Ssniff, Germany). All animal experimental procedures were conducted in accordance with institutional guidelines on animal experimentation approved by the local ethical committee of animal care and are conformed to the guidelines from Directive 2010/63/EU of the European Parliament on the protection of animals used for scientific purposes or the NIH guideline.
Depending of experiments, 8 weeks old mice were intraperitoneally injected with PBS, the peptide of formula (I), the peptide of formula (II) and SCR. Details of peptide use, dose and mode of administration and time course are specified in the description of FIG. 11. Given the short elimination half-life of the peptide of formula (I), osmotic pumps were also used to insure a continuous delivery for 14 days. Briefly, 200 μL osmotic pump were filled with 10 mg/mL of the peptide of formula (I) in PBS and were implanted subcutaneously into the mice according to the manufacturer's instructions (Alzet®, model pump #2002), to insure the peptide of formula (I) release at an estimated rate of 0.5 μL/h, which corresponds to an estimated amount of delivery of 5 mg of the peptide of formula (I) per kilogram of body weight per day (5 mg/kg BW/day). Following treatments, mice were fasted for 2 h and were then anesthetized by intra-peritoneal injection of ketamine and xylazine hydrochloride. The common bile duct was ligated close to the duodenum and the gallbladder was punctured and cannulated with a polyethylene-10 catheter. After 30 min of stabilization, newly secreted bile was collected for 30 min. During bile collection, body temperature was stabilized using a temperature mattress. Bile flow (expressed in μL/min/100 g of body weight) was determined gravimetrically assuming a density of 1 g/mL for bile. At the end of experiment, blood was collected and mice were sacrificed by cervical dislocation.
For bile acid analysis, 1 μL of bile samples was diluted with 99 μL of milliQ water then incubated with the work reagent (6 mg NAD, 0.5 M hydrazine hydrate buffer, 0.05 M Na-pyrophosphate) for 4 min. The mix was then incubated with a start reagent (0.03 M Tris-EDTA; 0.3 U/mL 3-alpha-OH steroid dehydrogenase) and measured for 30 min, under excitation of 340/330 nm and emission of 440/420 nm. For phospholipid analysis, 1 μL of bile samples was diluted with 49 μL of milliQ water then incubated with the work reagent (100 mM MOPS, pH 8; 0.55 mM HVA; 20 mM CaCl; 11 U/mL Phospholipase-D; 1.66 U/mL Peroxidase; 0.1% Triton X-100) for 4 min. The mix was then incubated with a start reagent (1 M MOPS, pH 8, 50 U/mL Choline oxidase) and measured for 67.5 min, under excitation of 340/330 and emission of 440/40. For cholesterol analysis, 1 μL of bile samples was diluted with 29 μL of milliQ water then was incubated with the work reagent (100 mM MOPS, pH 8, 0.25 mM HVA; 0.1% Triton X-100) for 4 min. The mix was then incubated with a start reagent (0.1 M MOPS, pH 8, 0.06 U/mL cholesterol oxidase, 0.15 U/mL cholesterol esterase, 0.45 U/mL Peroxidase, 0.06 mM Taurocholate) and measured for 45 min, under excitation of 340/330 nm and emission of 440/420 nm. Secretion values of bile acids, phospholipids and cholesterol were calculated by multiplying concentration and bile flow values, and expressed as nmol/min/100 g body weight (BW).

[3] = continuous delivery (osmotic pump, sc) 14 days, 5 mg/kg BW/day

Row | Compound | stimulation of NO production by endothelial cells [1] | bile flux ([2]; intraperitoneal bolus 25 mg/kg) | biliary secretion of bile acids ([2]; intraperitoneal bolus 25 mg/kg) | biliary secretion of cholesterol ([2]; intraperitoneal bolus 25 mg/kg) | biliary flux and biliary lipid secretion, compared with the 25 mg/kg dose ([2]; bolus injection 12 mg/kg) | biliary cholesterol secretion [2, 3] | biliary flux [2, 3] | time following injection up to which the effect on bile flux and biliary secretion is maintained ([2]; intraperitoneal bolus 25 mg/kg)
1 | CCCCCCCCCCCCCCCC(=O)NCCCC[C@H](NC(=O)[C@H](CCC(=O)O)NC(=O)[C@H](CCCNC(=N)N)NC(=O)[C@H](CO)NC(=O)[C@H](CCC(N)=O)NC(=O)[C@H](C)NC(=O)[C@H](CCCNC(=N)N)NC(=O)[C@H](Cc1ccccc1)NC(=O)[C@H](Cc1ccc(O)cc1)NC(=O)[C@H](CCCNC(=N)N)NC(=O)[C@H](CCC(=O)O)NC(=O)[C@H](CCC(=O)O)NC(=O)[C@H](CCC(=O)O)NC(=O)[C@H](C)NC(=O)[C@H](CCC(N)=O)NC(=O)[C@H](CCC(=O)O)NC(=O)[C@H](CCCNC(=N)N)NC(=O)[C@H](CCCCN)NC(=O)CNC(=O)[C@H](Cc1ccccc1)NC(=O)[C@H](C)NC(=O)CNC(=O)CNC(=O)[C@H](C)NC(=O)[C@H](CCC(=O)O)NC(=O)[C@H](CCCNC(=N)N)NC(=O)[C@@H](NC(=O)[C@H](CO)NC(=O)CNC(=O)[C@H](C)NC(=O)CNC(=O)[C@H](CCCNC(=N)N)NC(C)=O)[C@@H](C)CC)C(N)=O [peptide of formula (II), CH3CO-[SEQ ID NO: 1]-K-[palmitoyl]-NH2] (Ac-RGAGSIREAGGAFGKREQAEEERYFRAQSREK(Palmitoyl)-NH2) | about 50% | stimulated | stimulated | stimulated | – | – | – | –
2 | Ac-RGAGSIREAGGAFGKREQAEEERYFRAQSRE-NH2 [peptide of formula (I), CH3CO-[SEQ ID NO: 1]-NH2] | about 50% | significant increase | significant increase | significant increase | less efficient | stimulated | stimulated | up to 4 h
